Measured values: PubChem BioAssay (NCI)
“And” between values parts separate entries of the source, which are not always exact repeats. Equal values may be shown once.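 Assay format: 96-well plates, 48-hour exposure. The concentration for 50% growth inhibition is given as GI50. TGI is the concentration that stops growth completely.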

How the values were obtained:
Test in all cases: NCI anticancer screen, dose series, 48 h
OVCAR-3 ovarian = system: OVCAR-3 ovarian
HOP-92 NSCLC = system: HOP-92 NSCLC
SF-295 CNS = system: SF-295 CNS
PC-3 prostate = system: PC-3 prostate
MCF7 breast = system: MCF7 breast
786-0 renal = system: 786-0 renal
SNB-19 CNS = system: SNB-19 CNS
OVCAR-5 ovarian = system: OVCAR-5 ovarian
OVCAR-4 ovarian = system: OVCAR-4 ovarian
ACHN renal = system: ACHN renal

| Structure (SMILES) | GI50 (OVCAR-3 ovarian) | TGI (OVCAR-3 ovarian) [nM] | GI50 (HOP-92 NSCLC) | TGI (HOP-92 NSCLC) | GI50 (SF-295 CNS) | TGI (SF-295 CNS) | GI50 (PC-3 prostate) | TGI (PC-3 prostate) [nM] | GI50 (MCF7 breast) | TGI (MCF7 breast) [nM] | GI50 (786-0 renal) | TGI (786-0 renal) [nM] | GI50 (SNB-19 CNS) | TGI (SNB-19 CNS) [nM] | GI50 (OVCAR-5 ovarian) | TGI (OVCAR-5 ovarian) [nM] | GI50 (OVCAR-4 ovarian) | TGI (OVCAR-4 ovarian) [nM] | GI50 (ACHN renal) | TGI (ACHN renal) [nM] |
| --- | --- | --- | --- | --- | --- | --- | --- | --- | --- | --- | --- | --- | --- | --- | --- | --- | --- | --- | --- | --- |
| CCCCOC(=O)c1c(C)[nH]c(/C=C2\N=C(c3ccc[nH]3)C=C2OC)c1C | 151 nM | 1170 | 163 nM | 637 nM | 253 nM | 1320 nM | 136 nM | > 24900 | 162 nM | 2650 | 267 nM | 3090 | 1180 nM | > 56100 | 337 nM | 2470 | 177 nM | 5040 | 146 nM | 1300 |
| Fc1ccc(Nc2nc3nonc3nc2Nc2ccc(I)cc2)cc1 | 319 nM | 14100 | 40 nM | 326 nM | 214 nM | 792 nM | 181 nM | 10700 | 277 nM | 4080 | 298 nM | 2590 | 275 nM | 15900 | 373 nM | 20200 | 283 nM | 64500 | 171 nM | 3430 |
| NC1(C(=O)N[C@@H](CCO)c2ccc(Cl)cc2)CCN(c2ncnc3[nH]ccc23)CC1 | > 2430 nM and 28000 nM | > 100000 | 167 nM and 144 nM | 1540 nM and 1530 nM | 455 nM and 482 nM | > 5030 nM and 12900 nM | 860 nM and 841 nM | > 100000 | 632 nM and 1720 nM | > 100000 | 292 nM and 354 nM | > 100000 | 1500 nM and 3820 nM | > 100000 | > 2220 nM and 9440 nM | > 100000 | > 3080 nM and 33700 nM | > 100000 | > 2010 nM and 9600 nM | > 100000 |
| CC(=O)ON=C1C=CC(=C(C#N)c2ccccc2)C=C1 | 1030 nM | 8410 | 1670 nM | 6990 nM | 1830 nM | 12700 nM | 476 nM | 12300 | 319 nM | 12800 | 1190 nM | 14100 | 11500 nM | > 57500 | 3220 nM | 9280 | 5510 nM | 22000 | 772 nM | 14200 |
| COc1cc2c(cc1[N+](=O)[O-])C(=O)C(Br)(Br)CCC2 | – | 10500 | – | 17000 nM | – | 19400 nM | – | 17000 | – | 5330 | – | 2730 | – | 19500 | – | 4420 | – | 15700 | – | 4470 |
